From PubChem BioAssay (NCI)
Where “and” joins values, the source holds several entries; their conditions need not be identical. Equal values may be shown once.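 Test compounds were applied to cells in 96-well plates for 48 hours at 5 doses. GI50: concentration for 50% inhibition of growth. TGI marks complete inhibition of growth.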

Tests used:
Assay in all cases: NCI tumour cell line growth inhibition, 48 h
DMS 273 small cell lung = test system: DMS 273 small cell lung
HCT-116 colon = test system: HCT-116 colon
KM20L2 colon = test system: KM20L2 colon
A498 renal = test system: A498 renal
MDA-MB-231 breast = test system: MDA-MB-231 breast
HCT-15 colon = test system: HCT-15 colon
ACHN renal = test system: ACHN renal
COLO 205 colon = test system: COLO 205 colon
A549 NSCLC = test system: A549 NSCLC
PC-3 prostate = test system: PC-3 prostate
SNB-75 CNS = test system: SNB-75 CNS
MCF7 breast = test system: MCF7 breast
KM12 colon = test system: KM12 colon
CCRF-CEM leukemia = test system: CCRF-CEM leukemia
HOP-62 NSCLC = test system: HOP-62 NSCLC
OVCAR-4 ovarian = test system: OVCAR-4 ovarian
SN12C renal = test system: SN12C renal
SF-268 CNS = test system: SF-268 CNS
NCI-H226 lung = test system: NCI-H226 lung
SNB-19 CNS = test system: SNB-19 CNS
NCI-H23 lung = test system: NCI-H23 lung
UACC-257 melanoma = test system: UACC-257 melanoma
HCC-2998 colon = test system: HCC-2998 colon
BT-549 breast = test system: BT-549 breast
SK-MEL-28 melanoma = test system: SK-MEL-28 melanoma
DMS 114 small cell lung = test system: DMS 114 small cell lung
SF-295 CNS = test system: SF-295 CNS
OVCAR-5 ovarian = test system: OVCAR-5 ovarian
786-0 renal = test system: 786-0 renal
SK-MEL-2 melanoma = test system: SK-MEL-2 melanoma
K-562 leukemia = test system: K-562 leukemia
OVCAR-3 ovarian = test system: OVCAR-3 ovarian
SK-MEL-5 melanoma = test system: SK-MEL-5 melanoma
UACC-62 melanoma = test system: UACC-62 melanoma
DU-145 prostate = test system: DU-145 prostate
HS 578T breast = test system: HS 578T breast
OVCAR-8 ovarian = test system: OVCAR-8 ovarian
SW-620 colon = test system: SW-620 colon
T-47D breast = test system: T-47D breast
NCI-H522 lung = test system: NCI-H522 lung
U251 CNS = test system: U251 CNS
RXF-631 renal = test system: RXF-631 renal
XF 498 CNS = test system: XF 498 CNS
NCI-H460 lung = test system: NCI-H460 lung
LOX IMVI melanoma = test system: LOX IMVI melanoma
HT29 colon = test system: HT29 colon
RPMI-8226 leukemia = test system: RPMI-8226 leukemia
DLD-1 colon = test system: DLD-1 colon
CAKI-1 renal = test system: CAKI-1 renal
SF-539 CNS = test system: SF-539 CNS
RXF 393 renal = test system: RXF 393 renal
SR leukemia = test system: SR leukemia
HOP-92 NSCLC = test system: HOP-92 NSCLC
M14 melanoma = test system: M14 melanoma
HL-60(TB) leukemia = test system: HL-60(TB) leukemia
SNB-78 CNS = test system: SNB-78 CNS
SK-OV-3 ovarian = test system: SK-OV-3 ovarian
IGROV1 ovarian = test system: IGROV1 ovarian
UO-31 renal = test system: UO-31 renal
TK-10 renal = test system: TK-10 renal
MOLT-4 leukemia = test system: MOLT-4 leukemia
EKVX NSCLC = test system: EKVX NSCLC
MDA-N = test system: MDA-N
MALME-3M melanoma = test system: MALME-3M melanoma
M19-MEL melanoma = test system: M19-MEL melanoma
LXFL 529 NSCLC = test system: LXFL 529 NSCLC

O=C1/C(=C/c2ccccc2)CN(C(=O)OCc2ccccc2)C/C1=C\c1ccccc1
GI50 (DMS 273 small cell lung): 2620 nM | TGI (DMS 273 small cell lung): 14.3 µM | GI50 (HCT-116 colon): 484 nM | TGI (HCT-116 colon): 1630 nM and 2630 nM | TGI (KM20L2 colon): 18.9 µM | TGI (A498 renal): > 31.6 µM | TGI (MDA-MB-231 breast): 50.4 µM | GI50 (HCT-15 colon): 4.01 µM | TGI (HCT-15 colon): 20.8 µM | TGI (ACHN renal): 25.7 µM | TGI (COLO 205 colon): 34.1 µM | TGI (A549 NSCLC): > 46.4 µM | TGI (PC-3 prostate): 57.7 µM | TGI (SNB-75 CNS): > 31.6 µM | TGI (MCF7 breast): 37.2 µM | GI50 (KM12 colon): 2680 nM | TGI (KM12 colon): 14.8 µM | TGI (CCRF-CEM leukemia): 8.4 µM and 8.56 µM | TGI (HOP-62 NSCLC): 39.9 µM | GI50 (OVCAR-4 ovarian): 7.9 µM | TGI (OVCAR-4 ovarian): 27.4 µM | TGI (SN12C renal): 22.7 µM | TGI (SF-268 CNS): 30.7 µM | TGI (NCI-H226 lung): 35.2 µM | TGI (SNB-19 CNS): > 46.4 µM | TGI (NCI-H23 lung): 32.6 µM | GI50 (UACC-257 melanoma): 9.19 µM | TGI (UACC-257 melanoma): 28.3 µM | TGI (HCC-2998 colon): 18.3 µM | TGI (BT-549 breast): 33.2 µM | TGI (SK-MEL-28 melanoma): 32.8 µM | GI50 (DMS 114 small cell lung): 4.26 µM | TGI (DMS 114 small cell lung): 21 µM | GI50 (SF-295 CNS): 3.63 µM | TGI (SF-295 CNS): 26.7 µM | TGI (OVCAR-5 ovarian): 30.8 µM | TGI (786-0 renal): 18.5 µM | TGI (SK-MEL-2 melanoma): 44.8 µM | GI50 (K-562 leukemia): 1630 nM | TGI (K-562 leukemia): 15.4 µM | TGI (OVCAR-3 ovarian): 10 µM | GI50 (SK-MEL-5 melanoma): 3.44 µM | TGI (SK-MEL-5 melanoma): 30.7 µM | TGI (UACC-62 melanoma): 20.2 µM | TGI (DU-145 prostate): > 100 µM | TGI (HS 578T breast): 10.1 µM | GI50 (OVCAR-8 ovarian): 3.05 µM | TGI (OVCAR-8 ovarian): 9.39 µM and 20.3 µM | GI50 (SW-620 colon): 1440 nM | TGI (SW-620 colon): 3.72 µM and 15.5 µM | TGI (T-47D breast): > 100 µM | TGI (NCI-H522 lung): 18.5 µM | TGI (U251 CNS): 17.8 µM | TGI (RXF-631 renal): > 31.6 µM | TGI (XF 498 CNS): > 31.6 µM | GI50 (NCI-H460 lung): 5.47 µM | TGI (NCI-H460 lung): > 46.4 µM | GI50 (LOX IMVI melanoma): 1210 nM | TGI (LOX IMVI melanoma): 2.52 µM and 8.88 µM | GI50 (HT29 colon): 1870 nM | TGI (HT29 colon): 6.31 µM and 25.5 µM | GI50 (RPMI-8226 leukemia): 169 nM and 200 nM | TGI (RPMI-8226 leukemia): 737 nM and 647 nM | GI50 (DLD-1 colon): 4.14 µM | TGI (DLD-1 colon): 14.2 µM | TGI (CAKI-1 renal): > 31.6 µM | TGI (SF-539 CNS): 30.9 µM | TGI (RXF 393 renal): 19.8 µM | TGI (SR leukemia): 12.3 µM | TGI (HOP-92 NSCLC): > 100 µM | GI50 (M14 melanoma): 5.89 µM | TGI (M14 melanoma): 16.7 µM | TGI (HL-60(TB) leukemia): 5.43 µM | TGI (SNB-78 CNS): 25.4 µM | TGI (SK-OV-3 ovarian): 40.5 µM | TGI (IGROV1 ovarian): 23.8 µM | TGI (UO-31 renal): 24 µM | TGI (TK-10 renal): > 46.2 µM | GI50 (MOLT-4 leukemia): 2180 nM | TGI (MOLT-4 leukemia): 7.49 µM and 19 µM | TGI (EKVX NSCLC): > 31.6 µM | TGI (MDA-N): 13.1 µM | TGI (MALME-3M melanoma): > 46.4 µM | GI50 (M19-MEL melanoma): 2010 nM | TGI (M19-MEL melanoma): 7 µM and 13.6 µM

COc1cc(-c2cc(=O)c3cc(C)c(C)c(C(=O)O)c3o2)cc(OC)c1OC
TGI (DMS 273 small cell lung): > 100 µM | TGI (HCT-116 colon): > 100000 nM | TGI (KM20L2 colon): > 100 µM | TGI (A498 renal): > 100 µM | TGI (HCT-15 colon): > 100 µM | TGI (ACHN renal): > 100 µM | TGI (COLO 205 colon): > 100 µM | TGI (A549 NSCLC): > 100 µM | TGI (SNB-75 CNS): 55.9 µM | TGI (LXFL 529 NSCLC): > 100 µM | TGI (KM12 colon): > 100 µM | TGI (CCRF-CEM leukemia): > 100 µM | TGI (HOP-62 NSCLC): > 100 µM | TGI (OVCAR-4 ovarian): > 100 µM | TGI (SN12C renal): > 100 µM | TGI (SF-268 CNS): > 100 µM | TGI (SNB-19 CNS): > 100 µM | TGI (NCI-H23 lung): > 100 µM | TGI (UACC-257 melanoma): > 100 µM | TGI (HCC-2998 colon): > 100 µM | TGI (SK-MEL-28 melanoma): > 100 µM | TGI (DMS 114 small cell lung): > 100 µM | TGI (SF-295 CNS): > 100 µM | TGI (OVCAR-5 ovarian): > 100 µM | TGI (786-0 renal): > 100 µM | TGI (SK-MEL-2 melanoma): > 100 µM | TGI (K-562 leukemia): > 100 µM | TGI (OVCAR-3 ovarian): > 100 µM | TGI (SK-MEL-5 melanoma): > 100 µM | TGI (UACC-62 melanoma): > 100 µM | TGI (OVCAR-8 ovarian): > 100 µM | TGI (SW-620 colon): > 100 µM | TGI (NCI-H522 lung): > 100 µM | TGI (U251 CNS): > 100 µM | TGI (RXF-631 renal): > 100 µM | TGI (XF 498 CNS): > 100 µM | TGI (NCI-H460 lung): > 100 µM | TGI (LOX IMVI melanoma): > 100 µM | TGI (HT29 colon): > 100 µM | TGI (RPMI-8226 leukemia): > 100000 nM | TGI (DLD-1 colon): > 100 µM | TGI (SF-539 CNS): > 100 µM | TGI (HOP-92 NSCLC): > 100 µM | TGI (M14 melanoma): > 100 µM | TGI (SNB-78 CNS): > 100 µM | TGI (SK-OV-3 ovarian): > 100 µM | TGI (IGROV1 ovarian): > 100 µM | TGI (UO-31 renal): > 100 µM | TGI (TK-10 renal): > 100 µM | TGI (MOLT-4 leukemia): > 100 µM | TGI (EKVX NSCLC): > 100 µM | TGI (MALME-3M melanoma): > 100 µM | TGI (M19-MEL melanoma): > 100 µM
